In patent US9128046B2, “Slide holder assembly for comet assay” (Cellomics, Inc., priority 2011, dated 2015):

Assays:
CHO-K1 cells [1] = assay: comet assay of DNA repair over varied durations of time; assay type: cell-based; details: treated CHO-K1 cells layered onto wells for varied durations of time; FIG. 12
Protocol: In another sample comet assay, CHO-K1 cells were treated with 9-aminoacridine and the treated cells were layered onto select wells on the glass slide for varied durations of time. The cells were allowed to soak in a lysis solution and then an electrophoresis buffer while in the slide holder assembly. The cells were then electrophoresed while in the slide holder assembly and then imaged using the ToxInsight IVT Platform.

CHO-K1 cells [2] = assay: comet assay on CHO-K1 cells in slide holder assembly; assay type: cell-based; details: CHO-K1 cells treated with 100 μM for one hour; imaged with ToxInsight IVT platform
Protocol: Exemplary comet assays were performed using the above devices and methods. For example, in one comet assay, comets were successfully generated and analyzed using CHO-K1 cells on a 96-well glass slide. To ensure that comets would be produced, half of the CHO-K1 cells were treated with 100 μM 9-aminoacridine for one hour. A 96-well glass slide was secured within a slide holder assembly and half of the slide was layered with the treated CHO-K1 cells while the other half was layered with untreated CHO-K1 cells. The cells were allowed to soak in a lysis solution and then an electrophoresis buffer while in the slide holder assembly. The cells were then electrophoresed while in the slide holder assembly and then imaged using the ToxInsight IVT platform.
In FIG. 11, the untreated CHO-K1 cells 342 are shown in columns 1-6 (i.e., the left half of the image) and the treated CHO-K1 cells 344 are shown in columns 7-12 (i.e., on the right half). […] In the sample comet assay, the ToxInsight® IVT Platform was used as the cell imaging system to scan 25 fields/well. Using the Comet.V4 BioApplication software developed by Cellomics Inc., 14,075 comets were automatically selected by the cell imaging system within a time period of 20 minutes, 29 seconds. […] This translates to over one million comets that could be analyzed per 24-hour day.

DNA repair quantified in comets (CHO-K1 cells [1]): time-dependent response of DNA repair
Compound: Nc1c2ccccc2nc2ccccc12 [9-aminoacridine]
comet formation (DNA damage) (CHO-K1 cells [2]): comets were formed and imaged on the treated cells
